Test results taken from patent US20260234165A1, “MACROCYCLIC COMPOUNDS, PREPARATION METHOD THEREFOR, AND USE THEREOF” (GENFLEET THERAPEUTICS (SHANGHAI) INC., priority 2004, published 2026).
Counter-ions that a name gives are not always drawn. Like-named read-outs stand apart in the source and are kept apart here.

Columns and labels:
Format in all cases: cell-based, human
[1] = system: NCI-H441 cells; test: 3D cell proliferation assay (CellTiter Glo-3D), NCI-H441; conditions: medium with 2% FBS, read-out: H441 AP IC50
Method in brief: (§1)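 NCI-H441 ([…] lung) and AsPC-1 (KRAS G12D pancreatic) cells, 800 per well, were seeded in RPMI-1640 with 2% FBS and dosed next day with 3.16-fold compound dilutions (0.1% DMSO). After 5 days at 37 °C, CellTiter-Glo 3D luminescence gave inhibition versus DMSO and blank; IC50 from four-parameter fit.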

[2] = system: p-ERK in AsPC-1 cells (KRAS G12D mutation); test: Cell p-ERK assay (HTRF) in AsPC-1 cells; conditions: AsPC-1 cells, 3 h compound incubation, HTRF p-ERK T202/Y204, read-out: AsPC-1 p-ERK IC50
Method in brief: (§2)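 Seed 10000 AsPC-1 or 20000 NCI-H441 cells/well, overnight 37 °C/5% CO2. Cpd 3.16-fold series, 0.1% DMSO final, 3 h. Lyse 30 min, HTRF p-ERK (T202/Y204) Ab 4 h. IC50: 4-parameter fit of IR% normalised to DMSO and blank.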

[3] = system: AsPC-1 cells (KRAS G12D mutation); test: 3D cell proliferation assay (CellTiter Glo-3D), AsPC-1; conditions: medium with 2% FBS, read-out: AsPC-1 AP IC50
Method in brief: as §1

[4] = system: p-ERK in NCI-H441 cells (KRAS G12V mutation); test: Cell p-ERK assay (HTRF) in NCI-H441 cells; conditions: NCI-H441 cells, 3 h compound incubation, HTRF p-ERK T202/Y204, read-out: H441 p-ERK IC50
Method in brief: as §2

[5] = Homo sapiens, NCI-H441, 3D cell proliferation (CellTiter Glo-3D)
[6] = Homo sapiens, ASPC1, 3D cell proliferation (CellTiter Glo-3D)
[7] = 3D cell proliferation (CellTiter Glo-3D)

IC50 [1, 5] [nM]	IC50 [2] [nM]	IC50 [3, 6] [nM]	IC50 [4] [nM]	IC50 ([2]; Homo sapiens, ASPC1, 3 h) [nM]	IC50 ([4]; Homo sapiens, NCI-H441, 3 h) [nM]	IC50 [1, 7] [nM]	IC50 [3, 7] [nM]	SMILES
0.62	0.38	2.09	0.96					C=C1CCN2CCN(c3cnc([C@H](C)OC)c(-c4c5c6cc(ccc6n4CC)-c4csc(n4)C[C@H](NC(=O)[C@H]4[C@H](C)[C@@H]4C)C(=O)N4CCC[C@H](N4)C(=O)OCC(C)(C)C5)c3)C[C@H]2C1 (atropisomer, axis not shown; (Ra)) [Compound Z309, (1r,2R,3S)—N-((6^3S,4S,Z)-1^1-ethyl-(Ra)-1^2-(2-((S)-1-methoxyethyl)-5-((R)-8-methyleneoctahydro-2H-pyrido[1,2-a]pyrazin-2-yl)pyridin-3-yl)-10,10-dimethyl-5,7-dioxo-6^1,6^2,6^3,6^4,6^5,6^6-hexahydro-1^1H-8-oxa-2(4,2)-thiazola-1(5,3)-indola-6(1,3)-pyridazinacycloundecaphane-4-yl)-2,3-dimethylcyclopropane-1-carboxamide]
0.29		0.13		0.11	0.13			CCn1c(-c2cc(C#CCN3CCN(C)S(=O)(=O)CC3)cnc2[C@H](C)OC)c2c3cc(ccc31)-c1csc(n1)C[C@H](NC(=O)[C@H]1[C@H](C)[C@@H]1C)C(=O)N1CCC[C@H](N1)C(=O)OCC(C)(C)C2 [Compound Z847, (1r,2R,3S)—N-((6^3S,4S,Z)—1′-ethyl-(2-((S)-1-methoxyethyl)-5-(3-(2-methyl-1,1-dioxido-1,2,5-thiadiazepan-5-yl)prop-1-yn-1-yl)pyridin-3-yl)-10,10-dimethyl-5,7-dioxo-6^1,6^2,6^3,6^4,6^5,6^6-hexahydro-1^1H-8-oxa-2(4,2)-thiazola-1(5,3)-indola-6(1,3)-pyridazinacycloundecaphane-4-yl)-2,3-dimethylcyclopropane-1-carboxamide]
0.22		0.79		0.76	0.76			CC[C@H](C)C(=O)N[C@H]1Cc2nc(cs2)-c2ccc3c(c2)c(c(-c2cc(OCCN4CCS(=O)(=O)CC4)cnc2[C@H](C)OC)n3CC)CC(C)(C)COC(=O)[C@@H]2CCCN(N2)C1=O (atropisomer, axis not shown; (Ra)) [Compound Z609, (2S)—N-((6^3S,4S,Z)—(Ra)-1^2-(5-(2-(1,1-dioxidothiomorpholino)ethoxy)-2-((S)-1-methoxyethyl)pyridin-3-yl)-1^1-ethyl-10,10-dimethyl-5,7-dioxo-6^1,6^2,6^3,6^4,6^5,6^6-hexahydro-1^1H-8-oxa-2(4,2)-thiazola-1(5,3)-indola-6(1,3)-pyridazinacycloundecaphane-4-yl)-2-methylbutanamide]
0.43		0.36		0.42	0.5			CCn1c(-c2cc(C#CCN3CCCNCC3)cnc2[C@H](C)OC)c2c3cc(ccc31)-c1csc(n1)C[C@H](NC(=O)[C@H]1[C@H](C)[C@@H]1C)C(=O)N1CCC[C@H](N1)C(=O)OCC(C)(C)C2 (atropisomer, axis not shown; (Ra)) [Compound Z951]
0.23		0.23		0.28	0.18			CCn1c(-c2cc(C#CCN3CC(OC)C3)cnc2[C@H](C)OC)c2c3cc(ccc31)-c1csc(n1)C[C@H](NC(=O)[C@H]1[C@H](C)[C@@H]1C)C(=O)N1CCC[C@H](N1)C(=O)OCC(C)(C)C2 (atropisomer, axis not shown; (Ra)) [Compound Z945, (1r,2R,3S)—N-((6^3S,4S,Z)-1^1-ethyl-1^2-(5-(3-(3-methoxyazetidin-1-yl)prop-1-yn-1-yl)-(Ra)-2-((S)-1-methoxyethyl)pyridin-3-yl)-10,10-dimethyl-5,7-dioxo-6^1,6^2,6^3,6^4,6^5,6^6-hexahydro-1^1H-8-oxa-2(4,2)-thiazola-1(5,3)-indola-6(1,3)-pyridazinacycloundecaphane-4-yl)-2,3-dimethylcyclopropane-1-carboxamide]
	0.8		0.58			0.65	0.62	CCn1c(-c2cc(C#C[C@@H]3CCCN3C)cnc2[C@H](C)OC)c2c3cc(ccc31)-c1csc(n1)C[C@H](NC(=O)[C@H]1[C@H](C)[C@@H]1C)C(=O)N1CCC[C@H](N1)C(=O)OCC(C)(C)C2 (atropisomer, axis not shown; (Ra)) [Compound Z598, (1r,2R,3S)—N-((6^3S,4S,Z)—(Ra)-1^1-ethyl-12-(2-((S)-1-methoxyethyl)-5-(((S)-1-methylpyrrolidin-2-yl)ethynyl)pyridin-3-yl)-10,10-dimethyl-5,7-dioxo-6^1,6^2,6^3,6^4,6^5,6^6-hexahydro-1^1H-8-oxa-2(4,2)-thiazola-1(5,3)-indola-6(1,3)-pyridazinacycloundecaphane-4-yl)-2,3-dimethylcyclopropane-1-carboxamide]
2.03		3.42		2.01	1.7			CCn1c(-c2cc(N3CCN(C4(c5cccc(C)n5)CC4)CC3)cnc2[C@H](C)OC)c2c3cc(ccc31)-c1csc(n1)C[C@H](NC(=O)[C@H]1[C@H](C)[C@@H]1C)C(=O)N1CCC[C@H](N1)C(=O)OCC(C)(C)C2 [Compound Z81, (1r,2R,3S)—N-((6^3S,4S,Z)-1^1-ethyl-2-(2-((S)-1-methoxyethyl)-5-(4-(1-(6-methylpyridin-2-yl)cyclopropyl)piperazin-1-yl)pyridin-3-yl)-10-10-dimethyl-5,7-dioxo-6^1,6^2,6^3,6^4,6^5,6^6-hexahydro-1^1H-8-oxa-2(4,2)-thiazola-1(5,3)-indola-6(1,3)-pyridazinacycloundecaphane-4-yl)-2,3-dimethylcyclopropane-1-carboxamide formate]
17.5		47.5		45	14.6			CCn1c(-c2cc(N3CCN(C)CC3)cnc2[C@H](C)OC)c2c3cc(ccc31)-c1csc(n1)C[C@H](Nc1cc(C)cnn1)C(=O)N1CCC[C@H](N1)C(=O)OCC(C)(C)C2 [Compound Z559, (6^3S,4S,Z)-1^1-ethyl-(R3)-1^2-(2-((S)-1-methoxyethyl)-5-(4-methylpiperazin-1-yl)pyridin-3-yl)-10,10-dimethyl-4-((5-methylpyridazin-3-yl)amino)-6^1,6^2,6^3,6^4,6^5,6^6-hexahydro-1^1H-8-oxa-2(4,2)-thiazola-1(5,3)-indola-6(1,3)-pyridazinacycloundecaphane-5,7-dione]
2.32		5.52		2.62	1.16			CCn1c(-c2cc(C#CCN3CCCOCC3)cnc2[C@H](C)OC)c2c3cc(ccc31)-c1csc(n1)C[C@H](NC(=O)C[C@H]1CC1(F)F)C(=O)N1CCC[C@H](N1)C(=O)OCC(C)(C)C2 (atropisomer, axis not shown; (Ra)) [Compound Z932-2, N-((6^3S,4S,Z)—(Ra)-1^2-(5-(3-(1,4-oxazepan-4-yl)prop-1-yn-1-yl)-2-((S)-1-methoxyethyl)pyridin-3-yl)-1^1-ethyl-10,10-dimethyl-5,7-dioxo-6^1,6^2,6^3,6^4,6^5,6^6-hexahydro-1^1H-8-oxa-2(4,2)-thiazola-1(5,3)-indola-6(1,3)-pyridazinacycloundecaphane-4-yl)-2-((S)-2,2-difluorocyclopropyl)acetamide]
